Experimental data published in ChEMBL document CHEMBL1159289, “Enzyme inhibitors: new and known polybrominated phenols and diphenyl ethers from four Indo-Pacific Dysidea sponges” (J Nat Prod, 1995).
pIC50: −log10 of the molar value. Active and inactive are the calls of the source. No cut-off for these calls is given here.

What was measured:
[1] = molecular target: T1, Polyunsaturated fatty acid lipoxygenase ALOX15 (Homo sapiens) (UniProt P16050); assay: Inhibition of 15-lipoxygenase at 40 ug/ml; conditions: at 40 µg/mL
T1 sequence (whole entry): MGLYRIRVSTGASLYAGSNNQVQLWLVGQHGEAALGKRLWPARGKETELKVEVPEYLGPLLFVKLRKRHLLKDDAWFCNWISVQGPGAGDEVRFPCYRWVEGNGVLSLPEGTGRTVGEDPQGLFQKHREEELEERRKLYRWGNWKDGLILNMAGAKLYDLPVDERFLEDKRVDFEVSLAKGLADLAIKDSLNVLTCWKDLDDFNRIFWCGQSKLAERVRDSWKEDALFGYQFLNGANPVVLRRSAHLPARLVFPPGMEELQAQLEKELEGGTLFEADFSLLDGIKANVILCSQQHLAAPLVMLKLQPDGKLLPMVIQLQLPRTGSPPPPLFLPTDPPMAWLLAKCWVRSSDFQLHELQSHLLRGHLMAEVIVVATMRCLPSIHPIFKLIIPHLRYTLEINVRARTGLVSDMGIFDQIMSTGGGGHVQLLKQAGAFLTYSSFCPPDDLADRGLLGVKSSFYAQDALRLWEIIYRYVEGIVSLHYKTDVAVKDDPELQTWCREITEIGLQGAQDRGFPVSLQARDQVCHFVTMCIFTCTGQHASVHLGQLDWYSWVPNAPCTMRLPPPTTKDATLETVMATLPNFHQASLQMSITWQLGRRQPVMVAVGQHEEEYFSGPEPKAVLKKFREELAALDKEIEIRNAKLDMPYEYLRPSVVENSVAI

[2] = molecular target: GMP synthase [glutamine-hydrolyzing] (Homo sapiens) (UniProt P49915); assay: Inhibition of GMPS in human A3.01 cells at 50 uM; type: cell-based
[3] = Inhibition of matrix metalloprotease
[4] = Inhibition of tyrosine-protein kinase pp60v-src
[5] = Inhibition of inosine monophosphate dehydrogenase; design: unit not given here
[6] = molecular target: T2, Polyunsaturated fatty acid lipoxygenase ALOX15 (Homo sapiens, UniProt P16050); assay: Inhibition of 15-lipoxygenase
T2 sequence (P16050 whole entry): T1 sequence (whole entry)

[7] = Inhibition of PKC

GMP synthase [glutamine-hydrolyzing] (Homo sapiens), sequence (P49915 whole entry): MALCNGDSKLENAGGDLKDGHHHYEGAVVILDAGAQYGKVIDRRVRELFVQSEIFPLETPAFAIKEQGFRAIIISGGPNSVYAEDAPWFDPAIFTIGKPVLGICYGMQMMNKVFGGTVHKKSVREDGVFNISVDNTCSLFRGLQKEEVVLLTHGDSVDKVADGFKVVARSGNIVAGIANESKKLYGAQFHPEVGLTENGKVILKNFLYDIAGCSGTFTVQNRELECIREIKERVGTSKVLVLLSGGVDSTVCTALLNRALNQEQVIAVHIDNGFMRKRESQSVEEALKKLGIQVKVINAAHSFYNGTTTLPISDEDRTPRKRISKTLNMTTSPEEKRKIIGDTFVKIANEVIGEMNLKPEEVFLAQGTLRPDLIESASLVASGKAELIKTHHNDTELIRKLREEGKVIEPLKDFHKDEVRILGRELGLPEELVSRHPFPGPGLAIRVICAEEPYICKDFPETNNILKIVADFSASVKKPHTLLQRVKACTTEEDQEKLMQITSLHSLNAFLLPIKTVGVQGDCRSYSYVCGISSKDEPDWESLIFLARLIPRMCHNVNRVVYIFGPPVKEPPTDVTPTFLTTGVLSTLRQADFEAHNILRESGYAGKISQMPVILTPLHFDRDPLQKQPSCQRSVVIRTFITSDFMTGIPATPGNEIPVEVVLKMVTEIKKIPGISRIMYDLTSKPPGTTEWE

SMILES | inhibition [1] | inhibition [2] | Activity [3] | Activity [4] | EC50 [5] | pIC50 [6] | Activity [7]
Oc1cc(Br)cc(Br)c1Oc1c(O)cc(Br)c(Br)c1Br | 100% | – | – | – | – | – | –
Oc1cc(Br)c(Br)c(Br)c1Oc1cc(Br)cc(Br)c1O | – | 89% | inactive | inactive | – | – | –
Oc1c(Br)cc(Br)cc1Oc1ccc(Br)cc1Br | – | – | – | inactive | – | – | –
COc1c(Br)cc(Br)cc1Oc1c(O)cc(Br)cc1Br | – | – | – | inactive | – | – | –
Oc1c(Br)cc(Br)cc1Oc1c(Br)cc(Br)c(Br)c1O | – | 70% | inactive | inactive | 7.8 | 5.60 | –
Oc1c(Br)cc(Br)cc1Oc1c(O)c(Br)c(Br)c(Br)c1Br | – | 96% | inactive | inactive | 2.79 | 5.89 | inactive
Oc1cc(Br)cc(Br)c1Oc1ccc(Br)cc1Br | – | 56% | inactive | inactive | 5.71 | – | –
COc1cc(Br)cc(Br)c1Oc1cc(Br)cc(Br)c1O | – | – | – | inactive | – | – | –
Oc1c(Oc2ccc(Br)cc2Br)cc(Br)c(Br)c1Br | – | 71% | inactive | inactive | 4.4 | 5.13 | –
Oc1cc(Br)c(Br)c(Br)c1Oc1ccc(Br)cc1Br | – | 99% | inactive | inactive | 4 | 5.13 | –
